{
  "source": "patent US20180273970A1",
  "about": "“PLASMID, TRANSFORMED PLANT CELL AND TRANSGENIC PLANT COMPRISING THE SAME, AND METHODS FOR PREPARING A TRANSGENIC PLANT AND FOR INCREASING YIELD OF A PLANT UNDER ABIOTIC STRESSES” (Academia Sinica, priority 2014, published 2018)",
  "key": {"rice seedlings [1]": {"tested_on": "rice seedlings", "assay": "Seed germination and shoot elongation in air or under water (hypoxia)", "type": "in vivo", "settings": "under water with 90 mM sucrose", "description": "FIG. 6. SKINs suppress sugar production necessary for seedling growth under hypoxia. Rice seeds were germinated in air or in water with or without 90 mM sucrose at 28° C. under a 14-h light/10-h dark cycle for various lengths of time. Shoot length of seedlings were measured daily. Error bars indicate the S.E. of shoot length (n=10). Panel 1: transgenic line SKIN1-04 overexpressing SKIN1; panel 2: transgenic line SKIN2-04 overexpressing SKIN2. For data using more SKIN-Ox and SKIN-Ri lines, see also FIG. 16 online.\nFIG. 16. SKINs suppress sugar production necessary for underwater seedling growth. Rice seeds of SKIN-Ox and SKIN-Ri lines were germinated in air or in water with or without 90 mM sucrose for various lengths of time. Shoot length of seedlings were measured daily. Error bars indicate the S.E. of shoot length (n=10). Panel 1: in air; panel 2: in water; panel 3: in water with sucrose.\nThe experiment was performed as described (Lee et al., 2009). For germination in air, seeds were placed on 3M filter papers wetted with water in a 50-ml centrifuge tube which contains half-strength MS agar medium. For germination under water, seeds were placed in a 50-ml centrifuge tube, autoclaved water was carefully poured into the tube to avoid any air bubbles, and tubes were sealed with lids."}, "rice seedlings [2]": {"tested_on": "rice seedlings", "assay": "Seedling shoot and root growth under light/dark cycle or continuous darkness, with or without sucrose", "type": "in vivo", "settings": "3% (88 mM) sucrose, 6 days", "description": "FIG. 5. SKINs repress seedling growth by inhibiting nutrient mobilization in the endosperm. Transgenic lines SKIN1-Ox(O3), SKIN1-Ri(R3), SKIN2-Ox(02) and SKIN2-Ri(R1) were used in the following experiments. (A) Seeds were germinated and grown in water at 28° C. under a 14-h light/10-h dark cycle or continuous darkness without (panel 1) or with (panel 2) 3% (90 mM) sucrose for 6 days. (B) Lengths of shoots and roots of seedlings in (A) were quantified. Panels 1 and 2, without and with sucrose, respectively. (C) Seedlings were grown under a 14-h light/10-h dark cycle or continuous darkness for 3 days. Total RNA was extracted and subjected to quantitative (real-time) RT-PCR analysis using primers specific for αAmy3 (panel 1) and EP3A (panel 2). Error bars represent SE (n=12) at significance levels: * p<0.1, **p<0.05 in (B) and (C).\nRice (Oryza sativa cv Tainung 67) and barley (Hordeum vulgare cv Himalaya) were used in this study. Embryo calli were induced in the Murashige & Skoog (MS) medium containing 3% sucrose and […] 2,4-D (2,4-Dichlorophenoxyacetic acid) for 5 days. For hydroponic culture of rice seedlings, seeds were sterilized with 1.5% NaOCl plus Tween 20 for 1 h, washed extensively with distilled water, and germinated in a petri dish with wetted filter papers at 28° C. under a 14-h light/10-h dark condition unless otherwise indicated. […]"}, "[3]": {"target": "T1, GAD-SnRK1A (full-length SnRK1A 1-505 fused to the Gal4 activation domain) (rice, UniProt Q852Q2 1-505)", "T1 construct": "range 1-505", "T1 sequence (looked up)": "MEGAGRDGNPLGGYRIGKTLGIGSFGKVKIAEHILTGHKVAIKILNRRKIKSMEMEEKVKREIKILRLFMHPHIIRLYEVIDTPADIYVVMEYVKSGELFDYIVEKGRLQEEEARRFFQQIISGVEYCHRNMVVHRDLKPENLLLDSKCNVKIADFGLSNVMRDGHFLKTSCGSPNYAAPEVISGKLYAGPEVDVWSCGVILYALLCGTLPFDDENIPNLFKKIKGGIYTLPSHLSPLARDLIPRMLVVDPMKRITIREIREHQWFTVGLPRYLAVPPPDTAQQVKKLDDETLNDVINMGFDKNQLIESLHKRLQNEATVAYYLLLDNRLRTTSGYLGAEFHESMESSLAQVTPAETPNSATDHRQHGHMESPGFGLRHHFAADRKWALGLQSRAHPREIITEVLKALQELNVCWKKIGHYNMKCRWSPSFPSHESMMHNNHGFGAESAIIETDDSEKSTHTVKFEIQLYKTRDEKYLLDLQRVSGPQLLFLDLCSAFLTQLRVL", "assay": "rice embryo GAL4-UAS two-hybrid, luciferase reporter", "description": "FIG. 2. The N-terminus of SKIN interacts with the kinase domain of SnRK1A. For the GAL4-UAS two-hybrid assay, rice embryos were co-transfected with effector and reporter plasmids, incubated in −S medium for 24 h, and assayed for luciferase activity. The luciferase activity in rice embryos bombarded with effectors Ubi:GAD, Ubi:GBD and reporter 5XUAS-35S mp:Luc was set to 1×, and other values were calculated relative to this value. Error bars indicate the SE for three replicate experiments. Significance levels: * p<0.1, ** p<0.05. The Y axis indicates the relative luciferase activity with different constructs. (A) Plasmid constructs. (B) Rice embryos were co-transfected with effectors Ubi:GAD-SnRK1A and Ubi:GBD-SKIN (wild type or truncated) and reporter 5XUAS-35S mp:Luc. (C) Rice embryos were co-transfected with effectors Ubi:GAD-SnRK1A [wild type, kinase domain (KD) or regulatory (RD)], Ubi:GBD-SKIN and reporter 5XUAS-35S mp:Luc. (D) Rice embryos were co-transfected with effectors Ubi:GAD-SnRK1A and Ubi:GBD-SKIN and reporter 5XUAS-35S mp:Luc, and incubated in −S medium containing 1 μM ABA.\nRice embryos were prepared for particle bombardment as described (Chen et al., 2006). The rice embryos were bombarded with reporter, effectors and internal control at a ratio of 4:2:1 for single effector or 4:2:2:1 for two effectors. […]"}, "[4]": {"target": "T2, SnRK1A (full length, expressed from Ubi:SnRK1A) (rice, UniProt Q852Q2 1-505)", "T2 construct": "range 1-505; also called pUbi-SnRK1A-Nos", "T2 sequence (looked up)": "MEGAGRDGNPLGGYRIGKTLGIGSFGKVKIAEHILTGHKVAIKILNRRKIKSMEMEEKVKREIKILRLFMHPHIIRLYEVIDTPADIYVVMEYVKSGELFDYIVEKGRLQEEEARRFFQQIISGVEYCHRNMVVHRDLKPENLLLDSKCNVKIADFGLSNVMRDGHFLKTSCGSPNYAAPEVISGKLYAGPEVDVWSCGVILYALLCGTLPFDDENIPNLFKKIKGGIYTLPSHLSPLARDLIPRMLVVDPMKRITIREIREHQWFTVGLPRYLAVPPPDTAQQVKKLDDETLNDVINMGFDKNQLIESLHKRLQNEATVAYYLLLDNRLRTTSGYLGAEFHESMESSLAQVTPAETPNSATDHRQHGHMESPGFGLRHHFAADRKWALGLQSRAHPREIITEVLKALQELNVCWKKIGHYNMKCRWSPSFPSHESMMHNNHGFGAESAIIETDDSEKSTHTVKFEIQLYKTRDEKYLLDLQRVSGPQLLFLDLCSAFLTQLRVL", "assay": "co-expression and confocal localization of GFP fusions in barley aleurone cells", "description": "Detection of cellular localization of SKIN-GFP, SnRK1A-GFP and MYBS1-GFP fusion proteins were performed as described (Hong et al., 2012). Embryoless barley and rice seeds were sterilized with 1% NaOCl for 30 mins, and incubated in a buffer containing 20 mM CaCl₂ and 20 mM sodium succinate, pH 5.0, for 4 days. Aleurone layers were isolated by scratching away starch in the endosperm with a razor blade. Four aleurone layers were arranged in a 10-cm dish for bombardment. Aleurone layers expressing GFP were examined with a Ziess confocal microscope (LSM510META) using a 488-nm laser line for excitation and a 515- to 560-nm long pass filter for emission.\nThe subcellular localization of SKIN and SnRK1A was determined. As SKINs interact with the KD of SnRK1A, the full-length, KD and RD of SnRK1A were fused to the green fluorescence protein (GFP) and expressed under the control of the Ubi promoter in a barley aleurone cell transient expression system (Hong et al., 2012). As shown in FIG. 7 and FIG. 17, SnRK1A-GFP and SnRK1A-KD-GFP were largely localized in the cytoplasm and minor in the nucleus and SnRK1A-RD-GFP mainly in the nucleus, whereas SKIN1-GFP was predominantly localized in the nucleus and minor in the cytoplasm. Co-expression of SnRK1A-GFP with SKIN1 excluded all SnRK1A-GFP from the nucleus. […]"}},
  "data": [
    {"molecule": "OC[C@H]1O[C@@](CO)(O[C@H]2O[C@H](CO)[C@@H](O)[C@H](O)[C@H]2O)[C@@H](O)[C@@H]1O", "note": "[sucrose]", "values": [
      {"measurement": "Effect of sucrose on retarded shoot elongation of SKIN-Ox lines", "setting": "rice seedlings [1]", "result": "significantly recovered"},
      {"measurement": "Effect of sucrose on growth of SKIN-Ox lines", "setting": "rice seedlings [2]", "result": "recover the growth"}
    ]},
    {"molecule": "GBD-SKIN2 86-261 (other) MKLLSSIEQACDICRLKKLKCSKEKPKCAKCLKNNWECRYSPKTKRSPLTRAHLTEVESRLERLEQLFLLIFPREDLDMILKMDSLQDIKALLTGLFVQDNVNKDAVTDRLASVETDMPLTLRQHRISATSSSEESSNKGQRQLTVSSKAKEVAVEVEGGGLGFHGLGTLESLEDALPIKRGLSNFYAGKSKSFTSLAEAAAKAAAKEIAKPENPFNKRRRVLAAWSRRRASCSSLATTYLPPLLAPDHAVVEEEDEEDDSDAEQCSGSGGGNRRREPTFPPPRLSLHAQKSSLTPRSSNPASSFRSPRSFSLSDLQNAGSYN", "values": [
      {"measurement": "binding result", "setting": "[3]", "result": "no binding"}
    ]},
    {"molecule": "SKIN1-GFP (other, also called Ubi:SKIN1-GFP; SKIN-GFP; not shown: green fluorescence protein (GFP)) MSTAVADVPPAAAYGFPGSAKRGKPEEVVVLMGKRRNEGFFIEEEEEEEEVLTESSSIGAPSPASSSIGENSGEEEGGDDEEEVESKLKAEDEQVGLGCLDALEESLPIKRGLSNFYAGKSKSFTSLAEATASPAAAANELAKPENPFNKRRRILATWSRRASCSSLATATYLPPLLAPDHAVAEGDEGEEEDDDSDDDERQHRGKNGGRRESAAPPLPLPPPRLTLHTQMGGMVRRNGTFRSPRSLSLSDLQNSGGSC", "values": [
      {"measurement": "binding result", "setting": "[4]", "result": "binds"}
    ]}
  ]
}
